Measured values: paper PMC7690883, “Pseudoceratonic Acid and Moloka’iamine Derivatives from the Red Sea Verongiid Sponge Pseudoceratina arabica” (Marine Drugs, 2020)
Values after ≈ are worked out from the molar mass of the structure shown. Like-named read-outs stand apart in the source and are kept apart here.

Key:
Assay type in all cases: cell-based
S. aureus = experiment: MIC determination (dilution method), S. aureus; settings: Staphylococcus aureus; Mueller Hinton Broth, 48 h at 37 °C
Procedure: (§1) The minimal inhibitory concentrations (MICs) of the compounds were evaluated using a […] method (Table 3).
(§2) The MIC values of the compounds were determined of using a macrodilution method. Briefly, the compounds were dissolved in MeOH at a final concentration of 2000 µg/mL. Ciprofloxacin and ketoconazole were dissolved in H2O at final concentrations of 100 µg/mL. Syringe filters (0.2 µm) were used for sterilization of all stock solutions. Two-fold serial dilutions of the solutions were used in Mueller Hinton Broth (MHB) to give concentrations of 1.0–1000 µg/mL (for the compounds) and 0.125–64 µg/mL (for ciprofloxacin and ketoconazole). 500 µL from the 10^6 CFU/mL microbial suspensions were added in sterile tubes to give inoculua of 5 × 10^5 CFU/mL. Further, 100 µL of the stock solutions of the compounds and antibiotics were added into the tubes. Control tubes with test microorganisms only and MeOH were prepared. […] The tubes were kept for 48 h at 37 °C.

E. coli = experiment: MIC determination (dilution method), E. coli; settings: Escherichia coli; Mueller Hinton Broth, 48 h at 37 °C
Procedure: as §1, §2

S. aureus (ATCC 25923) = experiment: Disc diffusion assay, S. aureus; settings: Staphylococcus aureus
Procedure: (§3) The antimicrobial evaluation of the compounds against E. coli, S. aureus and C. albicans at 50 µg/disc was carried out using disc diffusion assay. […] The other compounds were weakly active against the three pathogens with inhibition zones of 6–9 mm (Table 3).
(§4) Using S. aureus (ATCC 25923), E. coli (ATCC 25922), and C. albicans (ATCC 14053), a disc diffusion assay was carried out to evaluate the antimicrobial effects of 1–6 at 50 µg/disc as reported before. Ketoconazole (50 µg/disc) and ciprofloxacin (5.0 µg/disc) served as antibiotics controls.

E. coli (ATCC 25922) = experiment: Disc diffusion assay, E. coli; settings: Escherichia coli
Procedure: as §3, §4

[1] = tested on: HeLa (human cervical carcinoma); experiment: MTT cytotoxicity assay, HeLa; settings: 72 h, read-out: IC50 HeLa
Procedure: (§5) The cytotoxic and antiproliferative effects of the compounds against MDA-MB-231, HeLa, and HCT 116 cell lines were evaluated using MTT (3-(4,5-Dimethylthiazol-2-yl)-2,5-diphenyltetrazolium bromide) assay (Table 4).
(§6) The cell lines MDA-MB-231 (triple-negative breast cancer, ATCC HTB-26), HeLa (human cervical carcinoma, ATCC CCL-2), HCT 116 (colorectal carcinoma, ATCC CCL-247) were used for the evaluation of the cytotoxicity of the compounds. In addition, NHDF (normal human dermal fibroblasts) cells were used to evaluate the selectivity of compound 2 against the cancerous cell lines. DMEM, with Pen–Strep. (1%) and FBS (10%), was used for culturing MDA-MB-231 cells, while RPMI 1640, with Pen–Strep. (1%) and FBS (10%), was used for culturing HCT 116 and HeLa cells. Finally, NHDF cells were cultured in fibroblast basal medium complemented with Pen–Strep. (1% v/v), heat-inactivated fetal bovine serum (FBS) (2% v/v), insulin (5 µg/mL) and basic fibroblast growth factor (1 ng/mL). Culture of all cells was completed at 37 °C with 5% CO2 and 95% humidity.
(§7) The cytotoxic effects of the compounds were evaluated using MTT assay as reported earlier. Briefly, all cells kept overnight in 5% CO2/air and at 37 °C. Tested compounds were added to the upper row of a 96-well plate followed by 1:4 (v/v) serial dilutions. After 72 h incubation of the compounds with the cells (10,000 cells/well for HCT 116 and NHDF, and 12,000 cells/well for HeLa and MDA-MB-231), the cells’ viability was calculated at 490 nm as reported before. 5-Fluorouracil (5-FU) and DMSO were used as positive and negative controls. The IC50 values reported in […] represent the mean of three separate experiments. A concentration of 10 µM was set as a cutoff value in this assay.

[2] = tested on: MDA-MB-231 (triple-negative breast cancer); experiment: MTT cytotoxicity assay, MDA-MB-231; settings: Homo sapiens, read-out: IC50 MDA-MB-231
Procedure: as §5, §6, §7

[3] = tested on: NHDF (normal human dermal fibroblasts); experiment: MTT cytotoxicity assay, NHDF; settings: 72 h
Procedure: as §5, §6
The cytotoxic effects of the compounds were evaluated using MTT assay as reported earlier. […] After 72 h incubation of the compounds with the cells (10,000 cells/well for HCT 116 and NHDF, and 12,000 cells/well for HeLa and MDA-MB-231), the cells’ viability was calculated at 490 nm as reported before. […]

[4] = tested on: HCT 116 (colorectal carcinoma); experiment: MTT cytotoxicity assay, HCT 116; settings: Homo sapiens, read-out: IC50 HCT 116
Procedure: as §5, §6, §7

C. albicans (ATCC 14053) = experiment: Disc diffusion assay, C. albicans; settings: Candida albicans
Procedure: as §3, §4

C. albicans = experiment: MIC determination (dilution method), C. albicans; settings: Candida albicans, read-out: C. albicans MIC
Procedure: as §1, §2

[5] = Homo sapiens, HeLa, MTT, cutoff 10 µM
[6] = MDA-MB-231, MTT, 72 h, cutoff 10 µM
[7] = HCT-116, MTT, 72 h, cutoff 10 µM
[8] = ATCC14053, disc diffusion, 50 µg/disc (compounds and ketoconazole), read-out: C. albicans Inhibition Zone
[9] = Mueller Hinton Broth, 48 h at 37 °C
[10] = ATCC25923, read-out: S. aureus Inhibition Zone
[11] = ATCC14053, read-out: C. albicans Inhibition Zone
[12] = ATCC25922, read-out: E. coli Inhibition Zone

| SMILES | MIC (S. aureus) | MIC (E. coli) | IC50 [1, 5] | IC50 [2, 6] | IC50 [4, 7] | IC50 ([1]; Homo sapiens, HeLa) | IC50 ([2]; MDA-MB-231, 72 h) | IC50 ([4]; HCT-116, 72 h) | zone of inhibition at 50 µg/disc (S. aureus (ATCC 25923); [10]) | zone of inhibition at 50 µg/disc (C. albicans (ATCC 14053); [11]) | zone of inhibition at 50 µg/disc (E. coli (ATCC 25922); [12]) | MIC (C. albicans; 48 h) | other results |
| --- | --- | --- | --- | --- | --- | --- | --- | --- | --- | --- | --- | --- | --- |
| O=C(O)c1cn(C2CC2)c2cc(N3CCNCC3)c(F)cc2c1=O [Ciprofloxacin, reference compound] | 0.5 µg/mL (≈ 1.51 µM) | 0.25 µg/mL (≈ 0.754 µM) |  |  |  |  |  |  |  |  |  |  | zone of inhibition at 5 µg/disc (S. aureus (ATCC 25923); ATCC25923, disc diffusion, ciprofloxacin 5.0 µg/disc): 22 mm; zone of inhibition at 5 µg/disc (E. coli (ATCC 25922); ATCC25922, disc diffusion, ciprofloxacin 5.0 µg/disc): 30 mm |
| N#CC(=O)NCCCOc1c(Br)cc(CCNC=C2C(=O)C=CC2=O)cc1Br [Compound 2, ceratinine N] | 125 µg/mL (≈ 245 µM) | 125 µg/mL (≈ 245 µM) | 2.1 µM | 3.1 ± 0.29 µM | 2.9 ± 0.18 µM |  |  |  |  |  |  |  | IC50 ([1]; MTT, cutoff 10 µM): 2.3 ± 0.16 µM; IC50 [3]: 3.5 ± 0.3 µM; zone of inhibition at 50 µg/disc (S. aureus (ATCC 25923); ATCC25923, disc diffusion, 50 µg/disc, read-out: S. aureus Inhibition Zone): 7 mm; zone of inhibition at 50 µg/disc (C. albicans (ATCC 14053); [8]): 16 mm; zone of inhibition at 50 µg/disc (E. coli (ATCC 25922); ATCC25922, disc diffusion, 50 µg/disc, read-out: E. coli Inhibition Zone): 6 mm; MIC (C. albicans; [9]): 16 µg/mL (≈ 31.3 µM) |
| CCOC(=O)NCCCOc1c(Br)cc(CCN)cc1Br [Compound 3, ceratinine O] | 64 µg/mL (≈ 151 µM) | 125 µg/mL (≈ 295 µM) |  |  |  | ≥ 10 µM | ≥ 10 µM | 9.5 ± 0.85 µM | 8 mm | 9 mm | 6 mm | 64 µg/mL (≈ 151 µM) |  |
| NCCCOc1c(Br)cc(CCN)cc1Br [Compound 4, moloka’iamine] | 125 µg/mL (≈ 355 µM) | 125 µg/mL (≈ 355 µM) |  |  |  | ≥ 10 µM | ≥ 10 µM | ≥ 10 µM | 7 mm | 6 mm | 6 mm | 125 µg/mL (≈ 355 µM) |  |
| NCCCOc1c(Br)cc(C(O)CN)cc1Br (centres unmarked) [Compound 5, hydroxymoloka’iamine] |  |  | ≥ 10 µM | ≥ 10 µM | ≥ 10 µM |  |  |  |  |  |  |  |  |
| O=c1[nH]cc(F)c(=O)[nH]1 [Compound 5-FU, 5-Fluorouracil, reference compound] |  |  | 12.3 ± 0.25 µM | 13 ± 0.3 µM | 4.6 ± 0.23 µM |  |  |  |  |  |  |  |  |
| N#CC(=O)NCCCOc1c(Br)cc(CCN)cc1Br [Compound 6, ceratinamine] | 64 µg/mL (≈ 158 µM) | 125 µg/mL (≈ 309 µM) |  |  |  | ≥ 10 µM | ≥ 10 µM | ≥ 10 µM | 9 mm | 12 mm | 7 mm | 32 µg/mL (≈ 79 µM) |  |
| CC(=O)N1CCN(c2ccc(OCC3COC(Cn4ccnc4)(c4ccc(Cl)cc4Cl)O3)cc2)CC1 (centres unmarked) [Ketoconazole, reference compound] |  |  |  |  |  |  |  |  |  |  |  |  | zone of inhibition at 50 µg/disc (C. albicans (ATCC 14053); [8]): 30 mm; MIC (C. albicans; [9]): 0.5 µg/mL (≈ 0.941 µM) |
